Data on 1 substance can be found in PMC6588697, “Lugdunin amplifies innate immune responses in the skin in synergy with host- and microbiota-derived factors” (Nature Communications, 2019).

In the data set the test system is PHKs. In words: Viability assay (MUH) in PHKs. Format: cell-based, human. The procedure: Effects of the used peptides on keratinocytes, PBMCs, and nasal and tracheal epithelial cell viability were tested using 4-methylumbelliferyl heptanoate (MUH). Briefly, cells were treated with peptides and respective peptide combinations for 24 h, followed by incubation with 100 μg/mL MUH (Sigma-Aldrich) in PBS for 1 h at 37 °C. The absolute fluorescence intensity at λex of 355 nm and λem of 460 nm was measured using a Fluoroskan II (Labsystems).
10 a: PHKs were treated with increasing concentrations of lugdunin for 24 hours and 11 subsequently expression of CAMP (LL-37) was analyzed and normalized to actin. […]
14 b+c: PHKs were treated with increasing concentrations of lugdunin for 24 hours and 15 subsequently the concentration of LL-37 and CXCL8 in the supernatant was analyzed . […]
18 d: Representative hematoxylin-eosin-stained paraffin-embedded human 3D skin 19 equivalent. […] After 24 hours, the concentration of LL-37 and CXCL8 in the 21 supernatant was analyzed. […] Significant differences to control treatments were analyzed 23 by an unpaired two-tailed t-test (*P<0.05). […]
26 f: PHKs were treated with 2 µM natural lugdunin, synthetic lugdunin, N -Acetyl lugdunin 27 (grey bars) or 100 ng/mL Pam2Cys or Pam3Cys (white bars) as positive control for 5 28 hours and subsequently expression of CXCL8 was analyzed and normalized to actin. […]

Take Lugdunin: the “toxicity to the cell types analyzed (in words)” value is reported as “not toxic”.
